Assay results published in patent US9718822B2, “Macrocyclic compounds as Trk kinase inhibitors” (Array BioPharma, Inc., priority 2010, dated 2017).
Where two headings read alike, the source gives them in different places.

What was measured:
[1] = target: histidine-tagged recombinant human TrkA, cytoplasmic domain (Homo sapiens (Human), UniProt P04629); assay: TrkA ELISA Assay; type: biochemical; conditions: read-out: TrkA Elisa Enzyme Assay IC50; also: 2.5 nM TrkA
Experimental: An enzyme-linked immunosorbant assay (ELISA) was used to assess TrkA kinase activity in the presence of inhibitors. Immulon 4HBX 384-well microtiter plates (Thermo part #8755) were coated with a 0.025 mg/mL solution of poly (Glu, Ala, Tyr; 6:3:1; Sigma P3899). […] The assay buffer consisted of 25 mM MOPS pH 7.5, 0.005% (v/v) Triton X-100 and 5 mM MgCl2. The reaction mixture was removed from the plate by washing with PBS containing 0.1% (v/v) Tween 20. The phosphorylated reaction product was detected using 0.2 μg/mL of a phosphotyrosine specific monoclonal antibody (clone PY20) conjugated to horseradish peroxidase in conjunction with the TMB Peroxidase Substrate System (KPL). After the addition of 1M phosphoric acid, the chromogenic substrate color intensity was quantitated via absorbance at 450 nm. IC50 values were calculated using either a 4 or 5-parameter logistic curve fit.
Table 1 provides averaged IC50 values for compounds of the invention when tested in this assay.

[2] = target: His-tagged recombinant human TrkA (cytoplasmic domain) (Homo sapiens (Human), UniProt P04629); assay: TrkA Binding Assay (LanthaScreen Eu Kinase Binding Assay)
Experimental: The ability of a compound to bind to TrkA was measured by Invitrogen's LanthaScreen™ Eu Kinase Binding Assay. […] After a 60-minute incubation at 22° C., the reaction was measured using the EnVision via TR-FRET dual wavelength detection, and the POC was calculated from the emission ratio. The compound dose response data was fit to a 4-parameter logistic model and IC50 was defined as the concentration of compound at 50 POC.

[3] = DMF

Chain of histidine-tagged recombinant human TrkA, cytoplasmic domain (P04629 440-796): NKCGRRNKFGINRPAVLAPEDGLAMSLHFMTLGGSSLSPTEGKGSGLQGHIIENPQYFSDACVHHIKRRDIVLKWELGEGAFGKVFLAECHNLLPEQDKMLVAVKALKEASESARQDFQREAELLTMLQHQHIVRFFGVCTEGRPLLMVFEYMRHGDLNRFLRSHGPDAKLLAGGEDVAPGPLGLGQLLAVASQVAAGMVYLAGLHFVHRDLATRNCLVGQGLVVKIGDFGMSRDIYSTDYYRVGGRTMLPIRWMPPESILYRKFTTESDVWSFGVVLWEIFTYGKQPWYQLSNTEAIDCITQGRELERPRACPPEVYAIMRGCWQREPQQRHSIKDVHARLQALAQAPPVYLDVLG
Chain of His-tagged recombinant human TrkA (cytoplasmic domain) (P04629 440-796): as above

Compound | IC50 [1] | IC50 [2] | further results
O=C1NC[C@H](O)COc2ccc(F)cc2C2CC(F)(F)CN2c2ccn3ncc1c3n2 (stereo partly drawn) | – | – | ring closure, yield of all isomers (from O=C(NC[C@H](O)CCl)c1cnn2ccc(N3CC(F)(F)CC3c3cc(F)ccc3O)nc12, ether bond, Cs2CO3, DMF, 20.0 mM, 85.0 °C, 0.5 h): 44%
O=C1NCCCOc2ncc(F)cc2[C@H]2CCCN2c2ccn3ncc1c3n2 [Example 3, (6R)-9-fluoro-13-oxa-2,11,17,21,22,25-hexaazapentacyclo[17.5.2.0^2,6.0^7,12.0^22,26]hexacosa-1(25),7,9,11,19(26),20,23-heptaen-18-one] | 1 to 100 nM | 1 to 100 nM | ring closure, yield of all isomers (from O=C(NCCCCl)c1cnn2ccc(N3CCC[C@@H]3c3cc(F)cnc3O)nc12, ether bond, Cs2CO3, DMF, […], 85.0 °C, 16.0 h): 44%
O=C1NC[C@@H](O)COc2ncc(F)cc2[C@H]2CCCN2c2ccn3ncc1c3n2 [Example 7, (6R,15R)-9-fluoro-15-hydroxy-13-oxa-2,11,17,21,22,25-hexaazapentacyclo-[17.5.2.0^2,6.0^7,12.0^22,26]hexacosa-1(25),7,9,11,19(26),20,23-heptaen-18-one] | 1 to 100 nM | 1 to 100 nM | ring closure, yield of all isomers (from O=C(NC[C@@H](O)CCl)c1cnn2ccc(N3CCC[C@@H]3c3cc(F)c[nH]c3=O)nc12, ether bond, Cs2CO3, DMF, 98.6 mM, 85.0 °C, 1.0 h): 40%
O=C1NCCOc2ncc(F)cc2[C@H]2CCCN2c2ccn3ncc1c3n2 [Example 9, (6R)-9-fluoro-13-oxa-2,11,16,20,21,24-hexaazapentacyclo[16.5.2.0^2,6.0^7,12.0^21,25]pentacosa-1(24),7,9,11,18(25),19,22-heptaen-17-one] | – | – | ring closure, yield of all isomers (from O=C(NCCCl)c1cnn2ccc(N3CCC[C@@H]3c3cc(F)c[nH]c3=O)nc12, ether bond, Cs2CO3, DMF, […], 85.0 °C, 0.5 h): 24%; IC50 ([1]; averaged IC50 values, […] TrkA, 500 μM ATP, 25 minutes at ambient temperature): 1 to 100 nM; IC50 ([2]; averaged IC50 values, TR-FRET, 60-minute incubation at 22° C., 2% DMSO final): 1 to 100 nM
O=C1OCCOc2ncc(F)cc2[C@H]2CCCN2c2ccn3ncc1c3n2 [Example 14, (6R)-9-fluoro-13,16-dioxa-2,11,20,21,24-pentaazapentacyclo[16.5.2.0^2,6.0^7,12.0^21,25]pentacosa-1(24),7,9,11,18(25),19,22-heptaen-17-one] | 1 to 100 nM | – | ring closure, yield of all isomers (from O=C(OCCCl)c1cnn2ccc(N3CCC[C@@H]3c3cc(F)c[nH]c3=O)nc12, ether bond, Cs2CO3, DMF, 22.2 mM, 90.0 °C, 16.0 h): 31%
O=C1OCCn2cc(F)cc(c2=O)[C@H]2CCCN2c2ccn3ncc1c3n2 [Example 15, (6R)-9-fluoro-14-oxa-2,11,18,19,22-pentaazapentacyclo[14.5.2.1^7,11.0^2,6.0^19,23]tetracosa-1(22),7,9,16(23), 17,20-hexaene-15,24-dione] | 100 to 3000 nM | – | ring closure, isolated yield ([3]; from O=C(OCCCl)c1cnn2ccc(N3CCC[C@@H]3c3cc(F)c[nH]c3=O)nc12, ether bond, 13-membered ring, Cs2CO3, 22.2 mM, 90.0 °C, 16.0 h): 22%
O=C1NOCCOc2ncc(F)cc2[C@H]2CCCN2c2ccn3ncc1c3n2 [Example 16, (6R)-9-fluoro-13,16-dioxa-2,11,17,21,22,25-hexaazapentacyclo [17.5.2.0^2,6.0^7,12.0^22,26]hexacosa-1(25),7,9,11,19(26),20,23-heptaen-18-one] | 1 to 100 nM | 1 to 100 nM | ring closure, yield of all isomers (from O=C(NOCCCl)c1cnn2ccc(N3CCC[C@@H]3c3cc(F)c[nH]c3=O)nc12, ether bond, Cs2CO3, DMF, 100.0 mM, 90.0 °C, […]): 1%
CN1CCCOc2ncc(F)cc2[C@H]2CCCN2c2ccn3ncc(c3n2)C1=O [Example 18, (6R)-9-fluoro-17-methyl-13-oxa-2,11,17,21,22,25-hexaazapentacyclo[17.5.2.0^2,6.0^7,12.0^22,26]hexacosa-1(25),7,9,11,19(26),20,23-heptaen-18-one] | 1 to 100 nM | 1 to 100 nM | ring closure, yield of all isomers (from CN(CCCCl)C(=O)c1cnn2ccc(N3CCC[C@@H]3c3cc(F)c[nH]c3=O)nc12, ether bond, Cs2CO3, DMF, 10.0 mM, 90.0 °C, 0.25 h): 36%
O=C1NCCCOc2ccc(F)cc2[C@H]2CCCN2c2ccn3ncc1c3n2 [Example 20, (6R)-9-fluoro-13-oxa-2,17,21,22,25-pentaazapentacyclo[17.5.2.0^2,6.0^7,12.0^22,26]hexacosa-1(25),7,9,11,19(26),20,23-heptaen-18-one] | 1 to 100 nM | 1 to 100 nM | ring closure, yield of all isomers (from CCOC(=O)c1cnn2ccc(N3CCC[C@@H]3c3cc(F)ccc3OCCCN)nc12, amide bond, DIEA, EtOH, 230.0 mM, 200.0 °C): 50%
O=C(CO)N1CCOc2ccc(F)cc2[C@H]2CCCN2c2ccn3ncc(c3n2)C1 [Example 23, 1-[(6R)-9-fluoro-13-oxa-2,16,20,21,24-pentaazapentacyclo[16.5.2.0^2,6.0^7,12.0^21,25]pentacosa-1(24),7,9,11,18(25),19,22-heptaen-16-yl]-2-hydroxyethan-1-one] | 1 to 100 nM | 1 to 100 nM | –
O=C(O)CN1CCOc2ccc(F)cc2[C@H]2CCCN2c2ccn3ncc(c3n2)C1 [Example 26, 2-[(6R)-9-fluoro-13-oxa-2,16,20,21,24-pentaazapentacyclo[16.5.2.0^2,6.0^7,12.0^21,25]pentacosa-1(24),7,9,11,18(25),19,22-heptaen-16-yl]acetic acid] | 100 to 3000 nM | 100 to 3000 nM | –
O=C1NCCCOc2ncc(F)cc2[C@H]2COC(=O)N2c2ccn3ncc1c3n2 [Example 30, (6S)-9-fluoro-4,13-dioxa-2,11,17,21,22,25-hexaazapentacyclo [17.5.2.0^2,6.0^7,12.0^22,26]hexacosa-1(25),7(12),8,10,19(26),20,23-heptaene-3,18-dione] | 1 to 100 nM | – | ring closure, yield of all isomers (from O=C(NCCCCl)c1cnn2ccc(N3C(=O)OC[C@@H]3c3cc(F)c[nH]c3=O)nc12, ether bond, Cs2CO3, DMF, 26.7 mM, 65.0 °C, 48.5 h): 41%
O=C1NCCOc2ncc(F)cc2[C@H]2COC(=O)N2c2ccn3ncc1c3n2 [Example 31, (6S)-9-fluoro-4,13-dioxa-2,11,16,20,21,24-hexaazapentacyclo [16.5.2.0^2,6.0^7,12.0^21,25]pentacosa-1(24),7(12),8,10,18(25),19,22-heptaene-3,17-dione] | 100 to 3000 nM | 100 to 3000 nM | –
O=C1NCCCc2ncc(F)cc2[C@H]2CCCN2c2ccn3ncc1c3n2 [Example 32, (6R)-9-fluoro-2,11,16,20,21,24-hexaazapentacyclo[16.5.2.0^2,6.0^7,12.0^21,25]pentacosa-1(24),7,9,11,18(25),19,22-heptaen-17-one] | – | 1 to 100 nM | ring closure, yield of all isomers (from NCCCc1ncc(F)cc1[C@H]1CCCN1c1ccn2ncc(C(=O)O)c2n1, amide bond, HATU, DMF, 8.4 mM, 3.0 h): 39%
C[C@@H]1CNC(=O)c2cnn3ccc(nc23)N2CCC[C@@H]2c2cc(F)cn(c2=O)C1 [Example 34, (6R,13R)-9-fluoro-13-methyl-2,11,15,19,20,23-hexaazapentacyclo [15.5.2.1^7,11.0^2,6.0^20,24]pentacosa-1(23),7,9,17(24),18,21-hexaene-16,25-dione] | – | 1 to 100 nM | ring closure, yield of all isomers (from COC(=O)c1cnn2ccc(N3CCC[C@@H]3c3cc(F)cn(C[C@H](C)CN)c3=O)nc12, amide bond, HATU, DMF, […], 3.0 h, 2 steps): 10%; ring closure, isolated yield ([3]; from C[C@H](CN)Cn1cc(F)cc([C@H]2CCCN2c2ccn3ncc(C(=O)O)c3n2)c1=O, amide bond, 14-membered ring, HATU/DIEA, […], 3.0 h, 2 steps): 10%
CC1(C)CCc2ncc(F)cc2[C@H]2CCCN2c2ccn3ncc(c3n2)C(=O)N1 [Example 37] | – | 1 to 100 nM | ring closure, yield of all isomers (from COC(=O)c1cnn2ccc(N3CCC[C@@H]3c3cc(F)cnc3CCC(C)(C)NC(=O)OC(C)(C)C)nc12, amide bond, EDCI/HOBt/Et3N, DMF, 39.4 mM, 45.0 °C, 18.0 h, 3 steps): 48.3%
O=C1Nc2ncccc2COc2ncc(F)cc2[C@H]2CCCN2c2ccn3ncc1c3n2 [Example 39, (6R)-9-fluoro-13-oxa-2,11,19,21,25,26,29-heptaazahexacyclo [21.5.2.0^2,6.0^7,12.0^15,20.0^26,30]triaconta-1(29),7,9,11,15(20),16,18,23(30),24,27-decaen-22-one] | – | 1 to 100 nM | ring closure, yield of all isomers (from O=C(Nc1ncccc1CCl)c1cnn2ccc(N3CCC[C@@H]3c3cc(F)cnc3O)nc12, ether bond, Cs2CO3, DMF, 84.8 mM, 60.0 °C, 4.0 h, 4 steps): 2.2%
O=C1NC[C@H](O)COc2ccc(F)cc2[C@H]2C[C@@H](O)CN2c2ccn3ncc1c3n2 [Example 41, (4R,6R,15S)-9-fluoro-4,15-dihydroxy-13-oxa-2,17,21,22,25-pentaazapentacyclo [17.5.2.0^2,6.0^7,12.0^22,26]hexacosa-1(25),7(12),8,10,19(26),20,23-heptaen-18-one] | – | 1 to 100 nM | ring closure, yield of all isomers (from O=C(NC[C@H](O)CCl)c1cnn2ccc(N3C[C@H](O)CC3c3cc(F)ccc3O)nc12, ether bond, Cs2CO3, DMF, 21.6 mM, 85.0 °C, 0.5 h): 16.2%
